Measured values as given in BindingDB's records for patent US20240051936 (Monte Rosa Therapeutics, 2024).

The compounds below were run against Protein cereblon (Homo sapiens, UniProt Q96SW2) (assay: Fluorescent Polarization Assay).
Sequence of Protein cereblon (Q96SW2 whole entry): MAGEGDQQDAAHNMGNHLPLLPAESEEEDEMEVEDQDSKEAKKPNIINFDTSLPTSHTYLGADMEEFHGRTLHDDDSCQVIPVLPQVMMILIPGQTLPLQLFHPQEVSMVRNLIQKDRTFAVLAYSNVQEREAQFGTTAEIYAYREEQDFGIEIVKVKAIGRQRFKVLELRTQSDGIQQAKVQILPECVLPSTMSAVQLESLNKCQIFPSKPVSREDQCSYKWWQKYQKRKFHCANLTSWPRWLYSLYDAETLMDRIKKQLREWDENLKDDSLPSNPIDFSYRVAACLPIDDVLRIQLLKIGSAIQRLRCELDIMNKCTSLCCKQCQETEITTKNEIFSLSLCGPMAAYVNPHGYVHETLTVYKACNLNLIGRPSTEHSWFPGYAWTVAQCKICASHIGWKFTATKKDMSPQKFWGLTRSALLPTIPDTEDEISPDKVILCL
Description: Compound activity was monitored in a fluorescence polarization (FP) homogeneous assay using 1-[5-({2-[2-(2-{[2-(2,6-dioxopiperidin-3-yl)-1,3-dioxo-2,3-dihydro-1H-isoindol-4-yl]oxy}acetamido)ethoxy]ethyl}carbamoyl)pentyl]-3,3-dimethyl-2-[(1E,3E)-5-[(2E)-1,3,3-trimethyl-5-sulfo-2,3-dihydro-1H-indol-2-ylidene]penta-1,3-dien-1-yl]-3H-indol-1-ium-5-sulfonate as a fluorescent probe. Unless otherwise stated, all reagents were purchased from Sigma Aldrich. Enzymatic reactions were conducted in Perkin-Elmer Black 384 well ProxiPlate Plus (catalogue no. 6008269) in 10 sL total volume. Full length wild-type cereblon CRBN (80.0 nM, 10 sL) was incubated in assay buffer containing 20 mM HEPES (pH 8.0), […], 0.5 mM TCEP and 0.05% Tween 20 in the presence or absence of compound (300 nL). Inhibitors were stored as 10 mM DMSO stocks in an inert environment (low humidity, dark, low oxygen, room temperature) using the Storage Pod System. Compounds and DMSO were dispensed using the Echo E5XX (Labcyte Inc. USA) to give concentrations from 300 to 0.937 or 3000 to 9.3 nM in a 12 data point curve. […] Following incubation at room temperature for 30 min, the assay was initiated by dispensing the probe to a final concentration of 5 nM (2.5 nL of a 20 μM stock) using the Echo E5XX. FP was measured after a period of 12 hours using a Pherastar plate reader (BMG Labtech, Germany) exciting at 590 nm and measuring the amount of parallel and perpendicular light at 675 nm. The FP signal was subsequently normalized to the no-compound control (i.e., DMSO). Analysis and IC50 values were derived using Dotmatics (Dotmatics UK) software.
`O=C1CCC(N2Cc3c(F)cc(COC(=O)Nc4cc(F)c(-c5ccccc5)c(F)c4)cc3C2=O)C(=O)N1` (centres undefined) [US20240051936, Compound 30] was tested, and the IC50 was > 1900 nM.
With `COc1c(COC(=O)Nc2ccc(C)c(Cl)c2)ccc2c1C(=O)N(C1CCC(=O)NC1=O)C2` (centres undefined) [US20240051936, Compound 70] the IC50 was > 1900 nM.
For `O=C1CCC(N2Cc3c(F)cc(COC(=O)Nc4ccc(C5CCC5)cc4)cc3C2=O)C(=O)N1` (centres undefined) [US20240051936, Compound 22], the IC50 was > 1900 nM.
`O=C1CCC(N2Cc3c(F)cc(COC(=O)Nc4ccc(F)c(OC(F)(F)F)c4)cc3C2=O)C(=O)N1` (centres undefined) [US20240051936, Compound 14] was tested, and the IC50 was > 1900 nM.
For `O=C1CCC(N2Cc3c(F)cc(COC(=O)Nc4cc(F)c(F)c(Cl)c4)cc3C2=O)C(=O)N1` (centres undefined) [US20240051936, Compound 61], the IC50 was > 1900 nM.
With `O=C1CCC(N2Cc3c(F)cc(COC(=O)Nc4ccc(F)c(Cl)c4)cc3C2=O)C(=O)N1` (centres undefined) [US20240051936, Compound 32] the IC50 was > 1900 nM.
`CC(C)(C)c1ccc(NC(=O)OCc2cc(F)c3c(c2)C(=O)N(C2CCC(=O)NC2=O)C3)cc1` (centres undefined) [US20240051936, Compound 10] was tested, and the IC50 was > 1900 nM.
For `O=C1CCC(N2Cc3c(F)cc(COC(=O)Nc4ccc(-c5ccccc5F)c(F)c4)cc3C2=O)C(=O)N1` (centres undefined) [US20240051936, Compound 29], the IC50 was > 1900 nM.
`O=C1CCC(N2Cc3c(F)cc(COC(=O)Nc4cc(F)cc(Cl)c4)cc3C2=O)C(=O)N1` (centres undefined) [US20240051936, Compound 33] was tested, and the IC50 was > 1900 nM.
